Experimental data taken from ChEMBL document CHEMBL1148522 (J Med Chem, 2006).

Biological target: Proto-oncogene tyrosine-protein kinase Src (Homo sapiens, UniProt P12931)
Test: Inhibition of SRC using polyE4Y as substrate

Proto-oncogene tyrosine-protein kinase Src, sequence (P12931 2-536 limits assumed): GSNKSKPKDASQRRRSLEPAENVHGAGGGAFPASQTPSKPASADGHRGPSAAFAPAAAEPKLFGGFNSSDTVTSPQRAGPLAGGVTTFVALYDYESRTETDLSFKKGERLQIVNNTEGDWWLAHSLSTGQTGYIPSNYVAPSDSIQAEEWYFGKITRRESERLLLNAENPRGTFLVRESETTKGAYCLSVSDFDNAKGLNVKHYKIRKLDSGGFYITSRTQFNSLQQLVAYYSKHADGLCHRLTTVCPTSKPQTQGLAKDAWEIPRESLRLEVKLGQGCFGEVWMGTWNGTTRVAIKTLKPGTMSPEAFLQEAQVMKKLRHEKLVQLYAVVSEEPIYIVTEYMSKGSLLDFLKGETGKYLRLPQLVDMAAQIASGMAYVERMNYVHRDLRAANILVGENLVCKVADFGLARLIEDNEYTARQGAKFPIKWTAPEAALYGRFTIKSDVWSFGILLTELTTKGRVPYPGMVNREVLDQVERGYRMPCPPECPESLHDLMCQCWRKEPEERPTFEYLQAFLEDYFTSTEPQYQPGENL

Row | IC50 | Compound
1 | > 700 µM | CC[C@H](C)[C@H](NC(=O)[C@H](CS)NC(C)=O)C(=O)N[C@@H](Cc1ccc(O)cc1)C(=O)N[C@@H](CCCCN)C(=O)N[C@@H](Cc1ccc(O)cc1)C(=O)N[C@@H](Cc1ccc(N)cc1)C(=O)O
2 | > 700 µM | CC[C@H](C)[C@H](NC(=O)[C@H](CS)NC(C)=O)C(=O)N[C@@H](Cc1ccc(O)cc1)C(=O)N[C@@H](CCCCN)C(=O)N[C@@H](Cc1ccc(NS(C)(=O)=O)cc1)C(=O)N[C@@H](Cc1ccc(O)cc1)C(=O)O
